Like-named read-outs stand apart in the source and are kept apart here.
How the values were obtained:
[1] = test system: FAP-negative cancer cell lines; test: Radioligand binding to FAP-negative human cancer cell lines; type: cell-based; details: I-125 labeled, 60 min
Procedure: (§1) In vitro binding studies were performed using the human tumor cell lines BxPC3, Capan-2, MCF-7 (purchased from Sigma Aldrich Chemie GmbH) and SK-LMS-1 (purchased from ATCC) as well as stably transfected FAP-cell lines HT-1080-FAP, HEK-muFAP and the CD26 expressing cell line HEK-CD26 (obtained from Stefan Bauer, NCT Heidelberg). All cells were cultivated in Dulbecco's modified Eagle's medium (DMEM) containing 10% fetal calf serum at 37° C./5% carbon dioxide. For fluorescence internalization experiments, cells were seeded on coverslips and stained with FAPI-02-Atto488 and DAPI for cell nucleus staining. Images were acquired on a laser scanning confocal microscope using a 63× oil immersion objective.
(§2) For radioligand binding studies, cells were seeded in 6-well plates and cultivated for 48 h to a final confluence of approx. 80-90% (1.2-2 mio cells/well). The medium was replaced by 1 mL fresh medium without fetal calf serum. The radiolabeled compound was added to the cell culture and incubated for different time intervals ranging from 10 min to 24 h. Competition experiments were performed by simultaneous exposure to unlabeled (10^−5 M to 10^−9 M) and radiolabeled compound for 60 min. […] Radioactivity was determined in a γ-counter (Cobra II, Packard), normalized to 1 mio cells and calculated as percentage of the applied dose (% ID). […]

human CD26 = human CD26 (Homo sapiens (Human), UniProt P27487); test: Radioligand binding to CD26 expressing cells (HEK-CD26); details: 60 min incubation
Chain of human CD26 (P27487 whole entry): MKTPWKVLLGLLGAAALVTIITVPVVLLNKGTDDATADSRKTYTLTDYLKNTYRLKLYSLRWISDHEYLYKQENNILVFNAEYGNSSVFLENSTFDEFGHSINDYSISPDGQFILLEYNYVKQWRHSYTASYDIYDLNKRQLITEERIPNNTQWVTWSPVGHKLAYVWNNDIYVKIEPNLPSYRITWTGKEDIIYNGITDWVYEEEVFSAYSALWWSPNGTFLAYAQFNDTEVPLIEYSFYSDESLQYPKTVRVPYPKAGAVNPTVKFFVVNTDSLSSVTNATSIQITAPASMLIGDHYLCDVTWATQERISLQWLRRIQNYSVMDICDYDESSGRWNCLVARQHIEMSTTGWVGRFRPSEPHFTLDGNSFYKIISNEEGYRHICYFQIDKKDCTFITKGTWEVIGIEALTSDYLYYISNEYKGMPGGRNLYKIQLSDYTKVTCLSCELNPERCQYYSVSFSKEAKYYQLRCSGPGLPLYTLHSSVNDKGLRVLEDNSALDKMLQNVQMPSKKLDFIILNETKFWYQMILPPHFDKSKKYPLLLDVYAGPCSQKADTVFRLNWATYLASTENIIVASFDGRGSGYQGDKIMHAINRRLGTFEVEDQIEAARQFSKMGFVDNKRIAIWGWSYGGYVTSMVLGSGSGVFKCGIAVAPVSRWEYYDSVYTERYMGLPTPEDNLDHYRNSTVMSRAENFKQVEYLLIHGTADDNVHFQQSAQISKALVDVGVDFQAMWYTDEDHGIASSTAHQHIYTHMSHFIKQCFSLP
Procedure: as §1, §2

HT-1080-FAP cells [2] = test: Radioligand binding and internalization in HT-1080-FAP cells; type: cell-based, human
Procedure: (§3) Radioligand binding studies were performed using HT-1080-FAP cells. The radiolabeled compound was added to the cell culture and incubated for different time intervals ranging from 10 min to 24 h. Competition experiments were performed by simultaneous exposure to unlabeled (10^−5 M to 10^−9M) and radiolabeled compound for 60 min. For efflux experiments, radioactive medium was removed after incubation for 60 min and replaced by non-radioactive medium for time intervals ranging from 1 to 24 h. For internalization experiments, surface bound activity was removed by incubating the cells with 1 M glycine-HCl buffer for 10 min. The radioactivity was measured using a γ-counter, normalized to 1 mio cells and calculated as percentage of applied dose (% ID).
(§4) For radioligand binding studies, cells were seeded in 6-well plates and cultivated for 48 h to a final confluence of approx. 80-90% (1.2-2 mio cells/well). The medium was replaced by 1 mL fresh medium without fetal calf serum. The radiolabeled compound was added to the cell culture and incubated for different time intervals ranging from 10 min to 24 h. Competition experiments were performed by simultaneous exposure to unlabeled (10^−5 M to 10^−9 M) and radiolabeled compound for 60 min. For efflux experiments, radioactive medium was removed after incubation for 60 min and replaced by non-radioactive medium for time intervals ranging from 1 to 24 h. In all experiments, the cells were washed with 1 mL phosphate-buffered saline pH 7.4 for 2 times and subsequently lysed with 1.4 ml lysis buffer (0.3 M NaOH, 0.2% SDS). Radioactivity was determined in a γ-counter (Cobra II, Packard), normalized to 1 mio cells and calculated as percentage of the applied dose (% ID). Each experiment was performed 3 times, and 3 repetitions per independent experiment were acquired.
For internalization experiments the cells were incubated with the radiolabeled compound for 60 min at 37° C. and 4° C. Cellular uptake was terminated by removing medium from the cells and washing 2 times with 1 mL PBS. Subsequently, cells were incubated with 1 mL of glycine-HCl (1 Min PBS, pH 2.2) for 10 min at room temperature to remove the surface bound activity. The cells were washed with 2 mL of ice-cold PBS and lysed with 1.4 mL of lysis buffer to determine the internalized fraction. For the cells incubated at 4° C., all washing and elution steps were carried out using ice-cold buffers. The radioactivity was measured using a γ-counter, normalized to 1 mio cells and calculated as percentage of applied dose (% ID).

human FAP-α = human FAP-α (Homo sapiens (Human), UniProt Q12884); test: Competitive binding of radiolabeled compound to HT-1080-FAP cells against unlabeled compound
Chain of human FAP-α (Q12884 whole entry): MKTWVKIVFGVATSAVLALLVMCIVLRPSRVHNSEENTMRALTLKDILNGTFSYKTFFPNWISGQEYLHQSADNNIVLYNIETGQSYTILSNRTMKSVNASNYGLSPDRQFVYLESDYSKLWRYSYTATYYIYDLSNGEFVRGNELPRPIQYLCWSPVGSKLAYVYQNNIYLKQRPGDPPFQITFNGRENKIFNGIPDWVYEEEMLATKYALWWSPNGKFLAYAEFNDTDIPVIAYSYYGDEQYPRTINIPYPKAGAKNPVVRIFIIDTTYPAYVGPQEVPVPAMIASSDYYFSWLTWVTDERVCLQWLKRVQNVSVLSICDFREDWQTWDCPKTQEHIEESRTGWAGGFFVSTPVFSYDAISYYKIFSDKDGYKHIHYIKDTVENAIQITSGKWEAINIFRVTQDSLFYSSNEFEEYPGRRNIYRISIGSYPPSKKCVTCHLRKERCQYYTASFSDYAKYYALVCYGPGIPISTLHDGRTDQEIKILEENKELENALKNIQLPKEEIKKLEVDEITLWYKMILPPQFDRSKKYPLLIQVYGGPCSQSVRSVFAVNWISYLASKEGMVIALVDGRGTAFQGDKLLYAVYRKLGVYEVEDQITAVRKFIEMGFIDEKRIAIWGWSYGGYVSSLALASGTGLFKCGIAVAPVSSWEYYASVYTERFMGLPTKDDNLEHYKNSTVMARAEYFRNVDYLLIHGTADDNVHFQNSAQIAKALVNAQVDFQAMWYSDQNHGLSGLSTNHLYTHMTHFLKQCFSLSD
Procedure: Competition experiments were performed by simultaneous exposure to unlabeled (10^−5 M to 10^−9M) and radiolabeled compound for 60 min. […] For internalization experiments, surface bound activity was removed by incubating the cells with 1 M glycine-HCl buffer for 10 min. The radioactivity was measured using a γ-counter, normalized to 1 mio cells and calculated as percentage of applied dose (% ID).
The medium was replaced by 1 mL fresh medium without fetal calf serum. […] Competition experiments were performed by simultaneous exposure to unlabeled (10^−5 M to 10^−9 M) and radiolabeled compound for 60 min. […] In all experiments, the cells were washed with 1 mL phosphate-buffered saline pH 7.4 for 2 times and subsequently lysed with 1.4 ml lysis buffer (0.3 M NaOH, 0.2% SDS). Radioactivity was determined in a γ-counter (Cobra II, Packard), normalized to 1 mio cells and calculated as percentage of the applied dose (% ID). Each experiment was performed 3 times, and 3 repetitions per independent experiment were acquired.

HT-1080-FAP cells [3] = test: Efflux experiments in HT-1080-FAP cells; type: cell-based, human; details: after 24 h in compound-free medium
Procedure: as §3, §4

HEK-CD26 cells = test: Fluorescence laser scanning microscopy of internalization, FAP-α negative cells; type: cell-based; details: fluorescently labeled, 1 to 2 hrs
Procedure: as §1
(§5) For internalization experiments HT-1080-FAP and HEK muFAP cells were seeded on uncoated coverslips in a 24-well plate and cultivated in culture medium containing 10% fetal calf serum to a final confluence of approx. 80-90%. The medium was removed and cells were washed with 0.5 mL PBS pH 7.4 for 2 times. FAPI-02-Atto488 (20 μM in DMEM) was added to the cells and incubated for 2 hrs at 37° C. Cells were washed with 0.5 mL PBS pH 7.4 for 3 times and fixed with paraformaldehyde (2% in PBS) for 15 min. The overgrown coverslips were placed on microscope slides using mounting medium containing DAPI for cell nucleus staining (Fluoroshield, Sigma-Aldrich). […]

[4] = test system: HT-1080-FAP and HEK-muFAP cells; test: Fluorescence laser scanning microscopy of internalization, FAP-α expressing cells; type: cell-based; details: fluorescently labeled, 1 to 2 hrs
Procedure: as §1, §5

[5] = test system: HT-1080-FAP tumor xenografts; test: Organ distribution ex vivo in HT-1080-FAP tumor bearing nude mice; design: species or system mouse; details: AlF-18-labeled, i.v.
[6] = test system: HT-1080-FAP tumor xenografts; test: Small-animal imaging (PET, scintigraphy) in HT-1080-FAP tumor bearing mice; type: in vivo, mouse; details: F-18 labeled (nicotinamide or AlF-18 NOTA), up to 140 min after i.v.
Procedure: For in vivo experiments, 8 week old BALB/c nu/nu mice (Charles River) were subcutaneously inoculated into the right trunk with 5×10^6 with HT-1080-FAP, Capan-2 or SK-LMS-1 cells, respectively. When the size of the tumor reached approximately 1 cm^3, the radiolabeled compound was injected via the tail vein (˜10 MBq for small-animal PET imaging; ˜1 MBq for organ distribution). […] Images were reconstructed iteratively using the 3D-OSEM+MAP method and were converted to standardized uptake value (SUV) images. Quantification was done using a ROI technique and expressed as SUV mean. For organ distribution of Lu-177 labeled compound ([…]), the animals (n=3 for each time point) were sacrificed after indicated time points (from 30 min to 24 h). The distributed radioactivity was measured in all dissected organs and in blood using a γ-counter (Cobra Autogamma, Packard). The values are expressed as percentage of injected dose per gram of tissue (% ID/g).

[7] = I-125 labeled, 10 min incubation

Q: Which “binding to FAP-negative cancer cell lines” value [1] does the source give for `N#C[C@@H]1CCCN1C(=O)CNC(=O)c1ccnc2cccc(I)c12` [FAPI-01] here?
A: no significant binding

Q: And the “binding to CD26 expressing cells (% ID)” value (human CD26)?
A: 0.05±0.01%

Q: And the “activity remaining after 24 h of incubation relative to initial radioactivity” value (HT-1080-FAP cells [2]; 24 h incubation, FAPI-01 compared to binding after 10 min)?
A: 5%

Q: And the “proportion of total bound fraction located intracellularly” value (HT-1080-FAP cells [2]; [7])?
A: 95%

Q: And the total bound fraction (HT-1080-FAP cells [2]; [7])?
A: 19.70±0.28%

Q: And the “internalized proportion of total” value (HT-1080-FAP cells [2]; I-125 labeled, 4 h incubation)?
A: 94%

Q: And the total bound fraction (HT-1080-FAP cells [2]; I-125 labeled, 4 h incubation)?
A: 17.00±0.40%

Q: What about the radioactivity (HT-1080-FAP cells [2]; I-125 labeled, after 24 h, 4° C. (reduced deiodinase activity)) of the same compound?
A: 26.66±1.59%

Q: And the intracellular radioactivity (HT-1080-FAP cells [2]; I-125 labeled, after 24 h, 37° C.)?
A: 3.25±0.29%

Q: What about the IC50 (human FAP-α; radiolabeled FAPI-01 (I-125) / FAPI-02 (Lu-177), HT-1080-FAP cells, 60 min, read-out: IC50 human FAP-α) of the same compound?
A: 39.4 nM

Q: And the “retained radioactivity (efflux)” value (HT-1080-FAP cells [3])?
A: 1.1 % ID

Q: What about the “retention of the originally accumulated radioactivity (efflux)” value (HT-1080-FAP cells [3]) of the same compound?
A: 1.1%

Q: Which results are given for `CN(CCCC(=O)N1CCN(CCCOc2ccc3nccc(C(=O)CCCN4CCC[C@H]4C#N)c3c2)CC1)Cc1ccccc1-c1c2ccc(=N)cc-2oc2c(S(=O)(=O)O)c(N)ccc12` [FAPI-02-Atto488]?
A: uptake in FAP-α negative HEK-CD26 cells (HEK-CD26 cells): no uptake is detectable; internalization into FAP-α expressing cells [4]: completely internalized

Q: With `N#C[C@@H]1CC(F)(F)CN1C(=O)CNC(=O)c1ccnc2ccc(OCCCN3CCN(C(=O)[C@H](CC(C(=O)O)C(=O)O)NC(=O)CN4CCN(CC(=O)O)CCN(CC(=O)O)CC4)CC3)cc12` [FAPI-75] as the compound, how does the IC50 (human FAP-α; F-18-FAPI derivatives, table title says EC50, head says IC50, read-out: IC50) read?
A: 2.9 nM

Q: And the “tumor uptake in organ distribution” value [5]?
A: high tumor uptake

Q: What about the PET imaging findings [6] of the same compound?
A: high target specificity and fast clearance
